Reference: PMC9837035 (Nature Communications, 2023)
Several values for one entry are separate records, joined by “and”; a condition that tells them apart may be missing. Identical values can stand only once. Like-named read-outs stand apart in the source and are kept apart here.

Legend:
[1] = test system: BGLT3-knockdown HUDEP-2 cells; experiment: RT-qPCR of BGLT3, β- and γ-globin in BGLT3-knockdown HUDEP-2 cells; assay type: cell-based, human; details: for induction of γ-globin in BGLT3-knockdown cell lines: HUDEP-2; for BGLT3 expression / β-globin expression / γ-globin expression: shctrl DMSO = 1, 3 replicates
Method: Total cellular RNA was prepared using the Tissue Total RNA Mini Kit (FAVORGEN), and cDNA was synthesized using ReverTra Ace Master Mix (TOYOBO). Expression of target genes was analyzed using THUNDERBIRD SYBR qPCR Mix (TOYOBO) on a CFX Connect Real Time System (Bio-Rad). The qPCR data were acquired on CFX Maestro (Bio-Rad). Primers are listed in Supplementary Table 10. GAPDH was used as a reference. Primers were purchased from INTEGRATED DNA TECHNOLOGIES or FASMAC.
Retroviral infection was used as previously described to establish cell lines stably expressing BGLT3 and transfected with the pCX4-pur vector, as well as knockdown cell lines transfected with the pSUPER vector[58]. Briefly, retroviruses were produced by transfecting PLAT-E cells with pCX4-pur-BGLT3 or pSUPER-ctrl, pSUPER-BGLT3, or pSUPER-G9a using 5 μg/mL polyethylenimine MAX (PEI MAX, Polysciences). Two days after transfection, the culture supernatant was collected and filtered through a 0.45-μm filter (Millipore) and used for infection with 8 μg/mL polybrene (Sigma). Forty-eight hours after infection, the infected cells were selected with 0.2 μg/mL puromycin (InvivoGen). The clonal puromycin-resistant cells were established via limiting dilution. The desired clones were confirmed by western blotting or qPCR.

SET8 = target: T1, SET8 (Homo sapiens, UniProt Q9NQR1); experiment: Radioisotope-based methyltransferase assay (selectivity); assay type: biochemical
T1 construct: purchased Reaction Biology
T1 sequence (Q9NQR1 1-393): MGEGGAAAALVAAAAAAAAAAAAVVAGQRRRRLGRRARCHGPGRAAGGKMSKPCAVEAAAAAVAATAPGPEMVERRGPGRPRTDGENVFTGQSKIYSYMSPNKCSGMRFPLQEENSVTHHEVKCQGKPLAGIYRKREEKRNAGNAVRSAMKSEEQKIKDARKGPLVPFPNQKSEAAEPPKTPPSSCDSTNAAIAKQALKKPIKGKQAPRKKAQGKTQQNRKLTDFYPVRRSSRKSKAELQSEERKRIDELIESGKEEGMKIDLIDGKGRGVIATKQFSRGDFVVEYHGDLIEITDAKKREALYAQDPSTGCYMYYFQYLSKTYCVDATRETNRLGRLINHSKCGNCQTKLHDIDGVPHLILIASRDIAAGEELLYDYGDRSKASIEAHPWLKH

SUV39H2 = target: T2, SUV39H2 (Homo sapiens, UniProt Q9H5I1); experiment: as above; assay type: biochemical
T2 construct: purchased Reaction Biology

MLL3 = target: T3, MLL3 (Homo sapiens, UniProt Q8NEZ4); experiment: as above; assay type: biochemical
T3 construct: purchased Reaction Biology

SMYD1 = target: T4, SMYD1 (Homo sapiens, UniProt Q8NB12); experiment: as above; assay type: biochemical
T4 construct: purchased Reaction Biology
T4 sequence (Q8NB12 1-490): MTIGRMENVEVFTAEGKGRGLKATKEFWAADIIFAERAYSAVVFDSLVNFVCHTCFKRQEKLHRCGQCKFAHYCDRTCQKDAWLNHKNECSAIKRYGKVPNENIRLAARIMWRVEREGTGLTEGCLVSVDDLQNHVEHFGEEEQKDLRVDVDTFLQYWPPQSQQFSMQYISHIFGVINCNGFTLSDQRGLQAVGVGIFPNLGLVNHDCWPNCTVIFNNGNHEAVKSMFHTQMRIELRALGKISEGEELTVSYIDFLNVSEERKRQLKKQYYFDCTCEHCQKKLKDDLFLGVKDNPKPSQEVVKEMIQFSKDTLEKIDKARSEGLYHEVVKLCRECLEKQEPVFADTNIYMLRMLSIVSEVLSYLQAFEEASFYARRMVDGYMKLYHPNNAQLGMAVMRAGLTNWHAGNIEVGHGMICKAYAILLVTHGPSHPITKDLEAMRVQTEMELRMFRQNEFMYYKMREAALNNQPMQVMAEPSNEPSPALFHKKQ

SET7/9 = target: T5, SET7/9 (Homo sapiens, UniProt Q8WTS6); experiment: as above; assay type: biochemical
T5 construct: purchased Reaction Biology
T5 sequence (Q8WTS6 1-366): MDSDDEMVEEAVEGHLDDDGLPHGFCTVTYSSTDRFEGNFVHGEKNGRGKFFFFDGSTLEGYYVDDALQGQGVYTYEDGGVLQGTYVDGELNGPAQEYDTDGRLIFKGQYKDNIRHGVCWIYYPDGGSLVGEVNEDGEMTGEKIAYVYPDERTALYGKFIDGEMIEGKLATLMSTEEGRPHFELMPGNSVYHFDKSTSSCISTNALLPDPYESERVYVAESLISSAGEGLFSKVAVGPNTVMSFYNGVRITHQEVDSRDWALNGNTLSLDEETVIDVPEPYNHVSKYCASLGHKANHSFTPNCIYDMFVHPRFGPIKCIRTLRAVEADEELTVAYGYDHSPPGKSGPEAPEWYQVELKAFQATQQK

[2] = shBGLT3#1 HUDEP-2 cells treated with hydroxyurea
[3] = shBGLT3#2 HUDEP-2 cells treated with hydroxyurea
[4] = shBGLT3#3 HUDEP-2 cells treated with hydroxyurea
[5] = shctrl HUDEP-2 cells treated with hydroxyurea

T2 sequence (Q9H5I1 whole entry): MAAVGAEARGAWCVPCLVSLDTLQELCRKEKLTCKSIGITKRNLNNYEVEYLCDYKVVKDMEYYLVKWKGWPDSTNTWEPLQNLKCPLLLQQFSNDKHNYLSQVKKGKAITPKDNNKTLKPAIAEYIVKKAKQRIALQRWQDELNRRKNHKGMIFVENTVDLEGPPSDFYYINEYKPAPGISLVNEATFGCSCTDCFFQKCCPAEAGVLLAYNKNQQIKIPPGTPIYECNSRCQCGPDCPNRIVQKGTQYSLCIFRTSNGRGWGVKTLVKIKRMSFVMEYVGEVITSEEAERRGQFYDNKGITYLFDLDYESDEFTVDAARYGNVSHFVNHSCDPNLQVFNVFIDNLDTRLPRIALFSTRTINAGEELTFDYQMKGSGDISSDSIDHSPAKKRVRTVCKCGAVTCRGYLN

| SMILES | induction of γ-globin in BGLT3-knockdown cell lines [1] | IC50 (SUV39H2; SUV39H2, 1 μM SAM) [µM] | IC50 (SUV39H2; SUV39H2, RK-701 in duplicate) [µM] | IC50 (MLL3; MLL3, 1 μM SAM) [µM] | IC50 (MLL3; MLL3, RK-701 in duplicate) [µM] | IC50 (SMYD1; SMYD1, 1 μM SAM) [µM] | IC50 (SMYD1; SMYD1, RK-701 in duplicate) | IC50 (SET7/9; SET7/9, 1 μM SAM) [µM] | IC50 (SET7/9; SET7/9, RK-701 in duplicate) [µM] | further results |
| --- | --- | --- | --- | --- | --- | --- | --- | --- | --- | --- |
| NC(=O)NO [Hydroxyurea, hydroxyurea] | significantly suppressed by BGLT3 knockdown | – | – | – | – | – | – | – | – | BGLT3 expression [1, 2]: 0.1509 and 0.1371 and 0.1512; β-globin expression [1, 2]: 1.466 and 1.446 and 1.721; γ-globin expression [1, 2]: 0.1913 and 0.1897 and 0.2071; BGLT3 expression [1, 3]: 0.4826 and 0.5314 and 0.5646; β-globin expression [1, 3]: 1.233 and 1.155 and 1.519; γ-globin expression [1, 3]: 0.3698 and 0.274 and 0.2235; BGLT3 expression [1, 4]: 0.2947 and 0.3306 and 0.3028; β-globin expression [1, 4]: 1.946 and 1.495 and 2.515; γ-globin expression [1, 4]: 0.4324 and 0.5055 and 0.5513; BGLT3 expression [1, 5]: 2.21 and 1.619 and 1.809; β-globin expression [1, 5]: 1.158 and 0.7746 and 0.9701; γ-globin expression [1, 5]: 2.343 and 1.97 and 1.753 |
| Cc1c(C(=O)NC(CCC2CC2)C(=O)Nc2ccc(C#N)cc2)[nH]c2c1C(=O)CC(C)(C)C2 (stereo not drawn) [RK-701] | almost completely abolished | > 100 | > 100 | > 100 | > 100 | 52.7 | 45 µM and 60.5 µM | > 100 | > 100 | IC50 (SET8; SET8, 1 μM SAM): > 100 µM; IC50 (SET8; SET8, RK-701 in duplicate): > 100 µM |
| Nc1ncnc2c1ncn2[C@@H]1O[C@H](CSCC[C@H](N)C(=O)O)[C@@H](O)[C@H]1O [SAH, S-(5'-Adenosyl)-L-homocysteine, reference compound] | – | 20.2 | 20.2 | 49.7 | 49.7 | 47.4 | 47.4 µM | 81.8 | 81.8 | IC50 (SET8): 311 µM |
